Each block holds one molecule with its values, some of them ahead of it.
Tests used:
Schistosoma japonicum [1] = assay: Antiparasitic activity against Schistosoma japonicum cercariae isolate Anhui infected in ICR mouse assessed as overall reduction rate at 100 to 400 mg/kg, po administered as single dose for 5 consecutive days measured on day 21 post dose by scanning electron microscopic method; assay type: functional; set-up: scale not given: the % may be the effect or the level left
[2] = Cytotoxicity against human HeLa cells assessed as cell survival at 40 uM after 24 hrs by MTT assay relative to control; assay type: cell-based; conditions: read-out: Survival
Schistosoma japonicum [3] = assay: Antiparasitic activity against Schistosoma japonicum derived from infected C57BL/6 mouse assessed as parasite killing at 10 uM incubated for 30 to 60 mins measured up to 72 hrs by inverted microscopic method relative to control; assay type: functional
Schistosoma mansoni [4] = assay: Antiparasitic activity against Schistosoma mansoni in patient assessed as cure rate by measuring reduction in eggs in stool at 10 mg/kg/day bid measured up to day 180 post dose relative to control; assay type: functional; set-up: scale not given: the % may be the effect or the level left
[5] = Elimination half life in human at 15 mg/kg, po; assay type: ADME, organism-based; conditions: in vivo, read-out: beta t1/2
Schistosoma mansoni [6] = assay: Antiparasitic activity against Schistosoma mansoni in patient assessed as reduction in eggs per gram of rectal mucosa at 10 mg/kg/day bid measured up to day 180 post dose relative to control; assay type: functional; set-up: scale not given: the % may be the effect or the level left
[7] = Drug excretion in human urine at 15 mg/kg, po; assay type: ADME, organism-based; conditions: read-out: Drug excretion
[8] = Cmax in human at 15 mg/kg, po; assay type: ADME, organism-based; set-up: dose 15 mg/kg, route oral; conditions: in vivo
[9] = Tmax in human; assay type: ADME
Plasma = assay: Drug level in human plasma after 1 to 2 hrs; assay type: ADME, cell-free
[10] = Fraction absorbed in po dosed dog; assay type: ADME, organism-based, Canis lupus familiaris; conditions: in vivo, read-out: Fabs
[11] = Drug excretion in human urine up to 4 days; assay type: ADME; conditions: read-out: Drug excretion
[12] = Fraction absorbed in po dosed monkey; assay type: ADME, organism-based, Macaca mulatta; conditions: rhesus monkey, in vivo, read-out: Fabs
Schistosoma mansoni [13] = assay: In vivo antiparasitic activity against Schistosoma mansoni assessed as cure rate at 40 to 60 mg/kg relative to control; assay type: functional
[14] = Protein binding in plasma (unknown origin) relative to control; assay type: ADME, cell-free; conditions: read-out: PPB
Schistosoma mansoni [15] = assay: Antiparasitic activity against Schistosoma mansoni in patient assessed as reduction in eggs per gram of rectal mucosa at 60 mg/kg/day for 3 consecutive days measured up to day 180 post dose relative to control; assay type: functional; set-up: scale not given: the % may be the effect or the level left
albumin = albumin (Homo sapiens, UniProt P02768); assay: Binding affinity to albumin (unknown origin); assay type: ADME; conditions: read-out: PB
Chain of albumin (P02768 whole entry): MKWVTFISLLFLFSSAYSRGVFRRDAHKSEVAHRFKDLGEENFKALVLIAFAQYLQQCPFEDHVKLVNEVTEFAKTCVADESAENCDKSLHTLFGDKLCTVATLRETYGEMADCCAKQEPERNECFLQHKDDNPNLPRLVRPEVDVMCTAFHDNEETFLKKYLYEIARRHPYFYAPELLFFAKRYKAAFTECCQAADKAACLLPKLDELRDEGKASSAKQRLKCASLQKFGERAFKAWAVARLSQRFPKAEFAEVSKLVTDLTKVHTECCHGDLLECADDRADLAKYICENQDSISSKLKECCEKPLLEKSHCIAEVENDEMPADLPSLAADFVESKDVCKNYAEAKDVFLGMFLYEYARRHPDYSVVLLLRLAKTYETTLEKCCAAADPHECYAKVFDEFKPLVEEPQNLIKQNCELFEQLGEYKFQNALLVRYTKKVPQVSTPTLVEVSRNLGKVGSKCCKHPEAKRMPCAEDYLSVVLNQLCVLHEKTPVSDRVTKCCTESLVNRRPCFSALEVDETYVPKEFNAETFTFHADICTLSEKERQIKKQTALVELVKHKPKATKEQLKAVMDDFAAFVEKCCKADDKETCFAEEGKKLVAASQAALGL

[16] = Antiparasitic activity against Schistosoma in intestinal schistosomiasis patient assessed as cure rate at 40 mg/kg; assay type: functional
Schistosoma mansoni [17] = assay: In vivo antiparasitic activity against Schistosoma mansoni assessed as reduction in egg count in […] at 40 to 60 mg/kg relative to control; assay type: functional; set-up: scale not given: the % may be the effect or the level left
[18] = Cmax in human after 1 to 2 hrs; assay type: ADME
[19] = Half life in human; assay type: ADME
[20] = Fraction absorbed in po dosed human; assay type: ADME, organism-based; conditions: in vivo, read-out: Fabs
Schistosoma mansoni [21] = assay: Antiparasitic activity against Schistosoma mansoni in patient assessed as cure rate by measuring reduction in eggs in stool at 60 mg/kg/day for 3 consecutive days measured up to day 180 post dose relative to control; assay type: functional; set-up: scale not given: the % may be the effect or the level left
[22] = Fraction absorbed in po dosed rat; assay type: ADME, organism-based; conditions: in vivo, read-out: Fabs
[23] = Protein binding in plasma (unknown origin); assay type: ADME, cell-free
[24] = Apparent permeability in human Caco2 cells; assay type: ADME, cell-based; conditions: Caco-2

SMILES: C[C@H]1[C@@H](OC(=O)CCC(=O)Oc2ccc3c(c2)C2CN(C(=O)C4CCCCC4)CC(=O)N2CC3)O[C@@H]2O[C@@]3(C)CC[C@H]4[C@H](C)CC[C@@H]1[C@@]24OO3 (stereo partly drawn)
Activity (Schistosoma japonicum [1]): 60%

SMILES: O=C(C1CCCCC1)N1CC(=O)N2CCc3ccc([N+](=O)[O-])cc3C2C1 (stereo not drawn)
viability at 24 h, 40 µM [2]: > 85%

SMILES: Nc1ccc2c(c1)C1CN(C(=O)C3CCCCC3)CC(=O)N1CC2 (stereo not drawn)
viability at 24 h, 40 µM [2]: > 85%

SMILES: O=C(CCCCCN1C(=O)c2cccc3c(C4CCOCC4)ccc(c23)C1=O)Nc1ccc2c(c1)C1CN(C(=O)C3CCCCC3)CC(=O)N1CC2 (stereo not drawn)
viability at 24 h, 40 µM [2]: > 85%

SMILES: O=C(CCl)N1CC(=O)N2CCc3sccc3C2C1 (stereo not drawn)
Activity (Schistosoma japonicum [3]): 100%

half-life [5]: 1.5 to 2 h | dose excreted [7]: 0.4 to 1.9% | Cmax [8]: 1000 to 4000 ng/mL
SMILES: CC(C)NCC1CCc2cc(CO)c([N+](=O)[O-])cc2N1 (stereo not drawn) [OXAMNIQUINE]
Activity (Schistosoma mansoni [4]): 90.3% | Activity (Schistosoma mansoni [6]): 42.4%

Tmax [9]: 3 to 4 h | Drug uptake (Plasma): 5 to 7 %ID | Fa [10]: 75 to 100% | dose excreted at 96 h [11]: 80% | Fa [12]: 75 to 100% | fraction unbound [14]: 0.195 to 0.21 | fraction unbound (albumin): 0.19 to 0.22 | Cmax [18]: 1000 ng/mL | half-life [19]: 1.5 h | Fa [20]: 75 to 100% | Fa [22]: 75 to 100% | PPB [23]: 0.19 to 3 mg/mL | Papp [24]: 44 ×10⁻⁶ cm/s
SMILES: O=C(C1CCCCC1)N1CC(=O)N2CCc3ccccc3C2C1 (stereo not drawn) [PRAZIQUANTEL]
Activity (Schistosoma mansoni [13]): 60 - 90% | Activity (Schistosoma mansoni [15]): 96.1% | Activity [16]: 18 - 39% | Activity (Schistosoma mansoni [17]): 90 - 95% | Activity (Schistosoma mansoni [21]): 100%
